Marks after values point to notes of the source that are not given here.
Legend:
[1] = system: IL-6 secretion in 3T3-L1 adipocytes; test: IL-6 secretion in t10-CLA-stimulated 3T3-L1 adipocytes; type: cell-based, murine
Description: Treatment—Test materials were added four hours prior to the addition of t10-CLA at a concentration of 50 μM. Following overnight incubation, the supernatant media were sampled for determination of IL-6 and adiponectin. Interleukin-6 assay—The IL-6 secreted into the medium in response to […] stimulation was quantified using the Quantikine® Mouse IL-6 Immunoassay kit with no modifications (R&D Systems, Minneapolis, Minn.). […] All supernatant media samples were diluted 1:30 for quantification. Statistical Calculations and Interpretation—Test materials and were assayed in duplicate, while solvent controls were replicated eight times. IL-6 and adiponectin secretion were represented relative to the IL-6 and adiponectin secretion of the t10-CLA only controls as the IL-6 and adiponectin index and differences among the means were analyzed by the student's t-test assuming a five percent probability of a type I error (Excel; Microsoft, Redmond, Wash.).

Caco-2 monolayers = test: t10-CLA-induced loss of transepithelial electrical resistance in Caco-2 monolayers; type: cell-based, human
From the text: Caco-2 Cells-The protocol for growing and differentiation the human Caco-2 colon andenocarcinoma cells was a modification of Protocol 3 as described by Yamashita et al. [[…]., and Furuyama, Y. (2002) New and better protocols for a short-term Caco-2 cell culture system, J Pharm Sci 91, 669-679]. Caco-2 Human Colon Adenocarcinoma cells were obtained from ATCC (Rockville, Md.; catalog #HTB-37) and maintained in a growth media: DMEM (Dulbecco's Modified Eagles Medium 1×) containing L-glutamine, glucose; Cellgro catalog #35-010CV with the following additions: (1) Penicillin (5,000 IU/mL)/Streptomycin (5,000 μg/mL) Cellgro catalog #30-001C1, (2) 10% FBS-Fetal Bovine Serum, Characterized; Hyclone catalog #SH30071.3, and (3) 1% NEAA-Non Essential Amino Acids; Cellgro catalog #25-025-CI; cells were cultured at 37 C in a humidified air-5% CO2 atmosphere in T175 flasks. Differentiation of Caco-2 cells to intestinal epithelial cells-BIOCOAT^R HTS Caco-2 Assay System kits (Becton Dickinson, N.J.; catalog #354801) consisting of 24-well fibrillar collagen coated inserts and feeder trays were used in all experiments and plated as follows. Media was removed from the T175 flasks and cells were washed with 10 mLs PBS (phosphate buffered saline 1× without Ca^++, without Mg^++; Cellgro #25-053-CI). PBS was removed and 5 mL of Trypsin/EDTA (1×, 0.25% Trypsin/2.21 mM EDTA in HBSS; Cellgro #25-053-CI) were added to the flask and the flask placed at 37 C until cells were visibly floating, approximately 3-5 minutes. Five mL of growth media were added to the flask to neutralize the trypsin. This solution was then transferred to a sterile 50 mL tube. Eight μL were sampled and placed in a hemocytometer for counting under a microscope. Five-hundred μL of cell solution were placed in the upper chamber of each insert so that the final density per well was at least 6.6×10^5 cells/cm^2. Thirty-five mL of growth media were then added to the feeder tray and plate incubated at 37 C with 5% CO2 and 100% humidity for 20-24 hours. […]

[2] = system: LPS-stimulated macrophages; details: published results, El-Mahmoudy 2002; cited from earlier work

Which “effect on IL-6 secretion in t10-CLA-stimulated adipocytes” value ([1]; concentrations of Table 8) does the source give for `CC1=CC(=O)C(C(C)C)=CC1=O` [Thymoquinone (Sigma), thymoquinone] here?
Its value is “inhibited IL-6 secretion”.

And the “IL-6 Index” value ([1]; relative to t10-CLA only control (100), 50 μM t10-CLA, overnight, each material at its tabulated concentration)?
The value was 75*.

What about the “Relative Loss of TEER” value (Caco-2 monolayers; 50 μM t10-CLA stimulus, positive control set to 100, each material at its tabulated concentration (TQ 5.0, NS8 0.11, NS9 0.99, NS10 0.012, NSSpent#2 0.0005 μg TQ equivalents/mL; Spent#1 5 μg/mL)) of the same compound?
Its value is 44.5*.

And the “effect on loss of TEER in t10-CLA-stimulated Caco-2 cells” value (Caco-2 monolayers; concentrations of Table 7)?
The value was “inhibited loss of TEER”.

What about the “IC50 for NO inhibition in LPS-stimulated macrophages” value [2] of the same compound?
The value was 1.4 to 2.8 µg/mL.

Source: US8535740B2, “Compositions from Nigella sativa” (priority 2002, dated 2013)
